In the NIST ThermoML archive (doi:10.1016/j.fluid.2014.04.004):

Legend:
[1] = Liquid, Closed cell (Static) method
[2] = excess molar enthalpy (molar enthalpy of mixing); xn = mol fraction of the nth substance listed; conditions: 303.15 K, 101 kPa, Liquid, Calvet calorimetry

Cc1cccc(C)n1 [2,6-dimethylpyridine]
[1]
Conditions | vapor or sublimation pressure [kPa]
283.37 K | 0.3
288.33 K | 0.42
293.3 K | 0.581
298.3 K | 0.794
303.27 K | 1.07
313.27 K | 1.879
323.24 K | 3.163
333.21 K | 5.14
343.2 K | 8.101
353.14 K | 12.23

Cc1cccc(C)n1 [2,6-dimethylpyridine] + C1CCCCC1
[2]
Conditions | excess molar enthalpy [kcal/mol]
x1 = 0.09 | 0.123
x1 = 0.22 | 0.239
x1 = 0.275 | 0.269
x1 = 0.308 | 0.281
x1 = 0.434 | 0.299
x1 = 0.529 | 0.283
x1 = 0.669 | 0.226
x1 = 0.806 | 0.142
x1 = 0.8998 | 0.0748

Cc1cncc(C)c1 [3,5-dimethylpyridine]
[1]
Conditions | vapor or sublimation pressure [kPa]
273.5 K | 0.04
283.45 K | 0.085
293.47 K | 0.172
303.54 K | 0.331
313.56 K | 0.612
323.59 K | 1.078
333.66 K | 1.824
343.62 K | 2.973
353.63 K | 4.688

Cc1cncc(C)c1 [3,5-dimethylpyridine] + C1CCCCC1
[2]
Conditions | excess molar enthalpy [kcal/mol]
x1 = 0.085 | 0.112
x1 = 0.221 | 0.227
x1 = 0.312 | 0.276
x1 = 0.386 | 0.295
x1 = 0.515 | 0.306
x1 = 0.635 | 0.279
x1 = 0.735 | 0.217
x1 = 0.83 | 0.149
x1 = 0.899 | 0.0951

C1CCCCC1 [cyclohexane]
[1]
Conditions | vapor or sublimation pressure [kPa]
283.32 K | 6.389
288.28 K | 8.195
293.27 K | 10.42
298.25 K | 13.17
303.27 K | 16.45
313.24 K | 24.97
323.21 K | 36.72
333.21 K | 52.48
343.18 K | 72.98
353.14 K | 99.11
